Read-outs that look alike come from different tables or passages of the source. Where only a bound is given, the exact number is not on record here.

Data set [1] deals with hepatic stage of P. berghei. The data set is described as follows: In vitro activity against P. berghei hepatic stages (luciferase-expressing sporozoites in Huh-7 cells, bioluminescence). Format: cell-based, Plasmodium berghei. Also on record: INFECTION (IC50 determination): unit not given here. A digest of the protocol: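 Huh-7 hepatoma cells pretreated with compounds 1 h, then infected with luciferase-expressing P. berghei sporozoites (1 × 10^4/well, 1:1 ratio) and incubated at 37 °C.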

Data set [2] is described as follows: Cytotoxicity assessment in vitro (MTT assay). It counts as cell-based. Particulars: human. A digest of the protocol: (§1)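 Human HepG2 hepatocellular carcinoma cells (passage 20–25) were treated with compound at 10 μM in triplicate for 24 h at 37 °C, 5% CO2. Viability was then measured by MTT: 3 h incubation, formazan dissolved in DMSO, absorbance read at 570 nm.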

A further data set concerns HepG2 cells. The data set is described as follows: Cytotoxicity assessment in vitro (MTT assay). It counts as cell-based. A digest of the protocol:
as §1
In general terms: Formazan colour is commonly taken as a measure of viable cells.

In data set [3] the test system is resistant Dd2 P. falciparum strain. Particulars: cited from earlier work.
The test system of a further data set is Plasmodium. Also on record: method as in PMID 29243039. Particulars: tested previously, cited from earlier work.
For data set [4], the system named is chloroquine-sensitive 3D7 strain. Also on record: method as in doi:10.21577/0103-5053.20190061. The settings on record: cited from earlier work.
The subject of data set [5] is multidrug-resistant K1 strain. Also on record: method as in doi:10.21577/0103-5053.20190061. Particulars: cited from earlier work.
A further data set deals with Huh-7 cell line. The data set is described as follows: Huh-7 cell confluency by alamarBlue assay during hepatic-stage test. It counts as cell-based. The settings on record: for CELL CONFLUENCY (IC50 determination) / CELL CONFLUENCY Ø screening: human, 46 h, pH 7. A digest of the protocol: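 Huh-7 human hepatoma cells pre-treated with compound in infection medium 1 h before luciferase-expressing P. berghei sporozoites were added (1:1, 1 × 10^4 per well), then incubated 46 h at 37 °C, 5% CO2. Confluency assessed indirectly by alamarBlue; IC50 from nonlinear-regression fit of normalized dose-response curves.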
(In general: Alamar Blue is a resazurin reagent that responds to reducing activity.)

Data set [6] concerns P. falciparum NF54 ring-stage synchronized cultures. The data set is described as follows: In vitro activity against P. falciparum blood stages (flow cytometry, SYBR green I). It counts as cell-based, Plasmodium falciparum. The settings on record: Control = 7.76333, 48 h. For orientation: Flow cytometry measures light scatter and fluorescence of single cells or particles in a stream.

On to `COc1c2c(cc3c1OCO3)[C@]13C=C[C@H](OC)C[C@H]1N(C2)C[C@@H]3O` [compound 28, ambelline], for which the IC50 (usually the concentration that gives 50% inhibition) in [1] (Plasmodium berghei, Huh-7, 48 h, read-out: IC50 P. berghei) was above 10 µM; in [3] it was 7300 ± 300 nM. Also, in data set [1] (screening at 10 and 1 µM / IC50 determination), the “activity against P. berghei hepatic stages” value is recorded as “neither haemanthamine nor ambelline showed inhibition”. Also, the viability (commonly a read-out of living cells in per cent, often relative to untreated cells) at 24 h, 10 µM in data set [2] (c = 10 µM, 24 h, MTT, read-out: HepG2 % of cell viability compared to non-treated control (100%)) was 50 ± 1%. For the same compound, in the data set with HepG2 cells (c = 10 μM, DMSO = 100, in %), the “Ø screening, HepG2 (sheet Graphs)” value came to 49.86. Moreover, the “1. screening of cytotoxic potential, HepG2 cell line” value with HepG2 cells (c = 10 μM, replicate 1, in %) stood at 49.93. Also, the “2. screening of cytotoxic potential, HepG2 cell line” value in the data set with HepG2 cells (c = 10 μM, replicate 2, in %) came out at 48.36. For the same compound, in the data set with HepG2 cells (c = 10 μM, replicate 3, in %), the “3. screening of cytotoxic potential, HepG2 cell line” value is given as 51.3.
Turning to `COC1C=CC23c4cc5c(cc4CN(CC2O)C3C1)OCO5` (stereo not shown) [compound 29, haemanthamine], the “antiplasmodial effect (words)” value with Plasmodium is recorded as “without notable activity”; in the data set with Plasmodium (listed as haemanthamine) it was “neither haemanthamine nor ambelline showed inhibition”.
In the case of `O[C@H]1[C@H]2c3cc4c(cc3CN3CCC(=C[C@@H]1O)[C@H]23)OCO4` [compound 6, lycorine], the IC50 in data set [4] is 2500 nM; in data set [5], 3100 nM.
Turning to `CC(=O)O[C@@H]1CC=C2CCN3Cc4cc5c(cc4[C@H]1[C@@H]23)OCO5` [compound 5, acetylcaranine], the IC50 in data set [3] was 3500 ± 300 nM.
As to `COc1cc(OC)cc(C(=O)O[C@@H]2CN3Cc4c(cc5c(c4OC)OCO5)[C@@]24C=C[C@H](OC)C[C@@H]34)c1` [28m, 11-O-(3,5-Dimethoxybenzoyl)ambelline], in data set [1] (Plasmodium berghei, Huh-7, 48 h, at 1 μM, DMSO = 100, read-out: INFECTION Ø screening), the activity at 1 µM is 4.97%. The activity at 10 µM in data set [1] (Plasmodium berghei, Huh-7, 48 h, at 10 μM, DMSO = 100, read-out: INFECTION Ø screening) was 0.465%. The IC50 in data set [1] (Plasmodium berghei, Huh-7, mean, unit (Table 1: µM), read-out: Antiplasmodial activity - Ø IC50) amounted to 0.0483 µM; in data set [1] (Plasmodium berghei, Huh-7, replicate 1, unit (Table 1: µM), read-out: Antiplasmodial activity - IC50 determination, 1. measurement) it was 0.0413 µM; in data set [1] (Plasmodium berghei, Huh-7, replicate 2, unit (Table 1: µM), read-out: Antiplasmodial activity - IC50 determination, 2. measurement), 0.0646 µM; in data set [1] (Plasmodium berghei, Huh-7, replicate 3, unit (Table 1: µM), read-out: Antiplasmodial activity - IC50 determination, 3. measurement), 0.0389 µM; in data set [1] (Plasmodium berghei, hepatic stage, Huh-7 cells, parasite load 48 h post-infection, read-out: IC50 P. berghei), 0.048 ± 0.014 µM. For the same compound, the “INFECTION (IC50 determination)” value came to 91.9843 in data set [1] (at 0.0001 µM, DMSO = 100); 94.6285 in data set [1] (at 0.001 µM, DMSO = 100); 82.6124 in data set [1] (at 0.01 µM, DMSO = 100); 46.9733 in data set [1] (at 0.05 µM, DMSO = 100); 24.6613 in [1] (at 0.1 µM, DMSO = 100); 8.963 in [1] (at 0.5 µM, DMSO = 100). For the same compound, in the data set with Huh-7 cell line, the “Huh-7 cell viability” value is given as “cell viability was not affected at antiplasmodial-active concentrations”. In addition, the “CELL CONFLUENCY (IC50 determination)” value with Huh-7 cell line (0.0001 µM) is given as 108.569; with Huh-7 cell line (0.001 µM) it was 114.348; with Huh-7 cell line (0.01 µM), 105.456; with Huh-7 cell line (0.05 µM) it was 107.735; in the data set on Huh-7 cell line (0.1 µM), 107.6; with Huh-7 cell line (0.5 µM), 97.6188. The “CELL CONFLUENCY Ø screening” value in the data set with Huh-7 cell line (1 µM) stood at 75.47; in the data set on Huh-7 cell line (10 µM) it was 66.23. The “Ø screening, blood stage parasite load” value is on record as 7.527 in data set [6] (at 10 nM), 6.707 in [6] (at 500 nM) and 7.237 in data set [6] (at 100 nm). Also, the viability at 24 h, 10 µM in [2] was 87 ± 6%. The “1. screening of cytotoxic potential, HepG2 cell line” value in the data set on HepG2 cells (human, 24 h, 10 µM) came to 83.99. Also, the “2. screening of cytotoxic potential, HepG2 cell line” value in the data set with HepG2 cells (human, 24 h, 10 µM) is given as 94. Moreover, the “3. screening of cytotoxic potential, HepG2 cell line” value in the data set with HepG2 cells (human, 24 h, 10 µM) is given as 84.39. Besides, the “Ø screening, HepG2 (sheet Graphs)” value in the data set with HepG2 cells (human, 24 h, 10 µM) came out at 87.46.

These data come from paper PMC10056443, “Derivatives of Amaryllidaceae Alkaloid Ambelline as Selective Inhibitors of Hepatic Stage of Plasmodium berghei Infection In Vitro” (Pharmaceutics, 2023).
